# Measured values taken from patent US9771325B2, “Tricyclic compounds and preparation thereof” (Council of Scientific & Industrial Research, priority 2014, dated 2017).
# Experiments:
# [1] = test system: Ovary (SK-OV-3) cancer cell line; assay: SRB assay for anticancer activity, SK-OV-3; format: cell-based, human; conditions: for inhibition at 10 µM: Homo sapiens, SK-OV-3, Ovary SKOV3, 48 h, read-out: % Inhibition at 10 μM Solution in Cancer Cell Line
# Method: (§1) SRB Assay Protocol for Anticancer Activity:
# (§2) Addition of cells: The human cancer cell lines Ovary (SK-OV-3), Lung (A549) and Breast (MCF-7) maintained in RPMI-1640 medium; Cervical (HeLa), Head & Neck (FaDu) and Colorectal adenocarcinoma (SW620) are maintained in DMEM medium. The enumerated cells are dispensed in a 96-well tissue culture plate. Each well receives 100 μl of the cell suspension containing 10,000-20,000 cells (depending upon the nature of cell line). The cells are then incubated at 37° C. in 5% CO2 concentration for 24 h before addition of the test samples/standard drugs.
# (§3) Addition of test samples: 100 μl of working solution of the test sample is added to the cell monolayer to give a final concentration 10 μM (pure compound) For each sample, duplicate wells are included.
# (§4) Positive (Drug) and Negative (Vehicle) Controls: In every assay plate both positive and vehicle controls are included. In positive control well, adriamycin (Doxorubicin) is added at 10 μM concentration. In vehicle control wells, DMSO is added. In all assay wells the final concentration of DMSO is 0.1%. The plates are then incubated at 37° C. in 5% CO2 concentration for 48 h.
# (§5) Addition of SRB and Colorimetric reading: After 48 h incubation, cells attached to substratum of the plate are fixed by adding cold 50% trichloroacetic acid (TCA, 50 μl/well) on top of the medium and incubated at 4° C. for 1 h. After that the plate is gently washed 5 times with slow running tap water via plastic tubing to remove TCA, culture medium and dead cells. The water stream should not be injected very fast or directly on to the bottom of the wells as this can cause cell monolayer to detach. After washing, the plates are allowed to dry in air (plates can be stored for long periods at room temperature after fixing and drying step) […], 50 μl/well of SRB solution is added and left at room temperature for 30 min. At the end of the staining period, unbound SRB is removed by quickly rinsing plates 4-5 times with 1% (v/v) acetic acid. Plates are allowed to air-dry at room temperature (Stained and dried plates can be stored indefinitely at room temperature). 150 μl of 10 mM Tris base solution is added to each well and plate is shaken for 15 min on a gyratory shaker to solubilize the protein-bound dye. Alternatively, if a shaker is unavailable, SRB gets solubilized after 30 min in Tris base solution. Absorbance is measured at 510 nm in a microplate spectrophotometer.
# (§6) Percentage of cell growth inhibition in presence of the test sample is calculated as follows: […]
# [2] = test system: Lung (A549) cancer cell line; assay: SRB assay for anticancer activity, A549; format: cell-based, human; conditions: 48 h; for inhibition at 10 µM: Homo sapiens, read-out: % Inhibition at 10 μM Solution in Cancer Cell Line
# Method: as §1, §2, §3, §4, §5, §6
# [3] = test system: Lung NCI-H446 cancer cell line; assay: SRB assay for anticancer activity, NCI-H446; format: cell-based, human; conditions: 48 h; for inhibition at 10 µM: Homo sapiens, read-out: % Inhibition at 10 μM Solution in Cancer Cell Line
# [4] = test system: Ovary NIH:OVACR-3 cancer cell line; assay: SRB assay for anticancer activity, NIH:OVACR-3; format: cell-based, human; conditions: 48 h; for inhibition at 10 µM: Homo sapiens, read-out: % Inhibition at 10 μM Solution in Cancer Cell Line
# [5] = test system: cervical C-33A cancer cell line; assay: SRB assay for anticancer activity, C-33A; format: cell-based, human; conditions: 48 h; for inhibition at 10 µM: Homo sapiens, read-out: % Inhibition at 10 μM Solution in Cancer Cell Line
# [6] = test system: Cervical (HeLa) cancer cell line; assay: SRB assay for anticancer activity, HeLa; format: cell-based, human; conditions: 48 h; for inhibition at 10 µM: Homo sapiens, read-out: % Inhibition at 10 μM Solution in Cancer Cell Line
# Method: as §1, §2, §3, §4, §5, §6
# [7] = test system: Lung NCI-H358 cancer cell line; assay: SRB assay for anticancer activity, NCI-H358; format: cell-based, human; conditions: 48 h; for inhibition at 10 µM: Homo sapiens, read-out: % Inhibition at 10 μM Solution in Cancer Cell Line
# [8] = test system: Colon DLD-1 cancer cell line; assay: SRB assay for anticancer activity, DLD-1; format: cell-based, human; conditions: 48 h; for inhibition at 10 µM: Homo sapiens, read-out: % Inhibition at 10 μM Solution in Cancer Cell Line
# [9] = test system: Breast (MCF-7) cancer cell line; assay: SRB assay for anticancer activity, MCF-7; format: cell-based, human; conditions: for inhibition at 10 µM: Homo sapiens, MCF7, 48 h, read-out: % Inhibition at 10 μM Solution in Cancer Cell Line
# Method: as §1, §2, §3, §4, §5, §6
# [10] = test system: Head & Neck (FaDu) cancer cell line; assay: SRB assay for anticancer activity, FaDu; format: cell-based, human; conditions: 48 h; for inhibition at 10 µM: Homo sapiens, read-out: % Inhibition at 10 μM Solution in Cancer Cell Line
# Method: as §1, §2, §3, §4, §5, §6
# [11] = test system: Head & Neck KB cancer cell line; assay: SRB assay for anticancer activity, KB; format: cell-based, human; conditions: 48 h; for inhibition at 10 µM: Homo sapiens, read-out: % Inhibition at 10 μM Solution in Cancer Cell Line
# [12] = test system: Ovary PA1 cancer cell line; assay: SRB assay for anticancer activity, PA1; format: cell-based, human; conditions: 48 h; for inhibition at 10 µM: Homo sapiens, read-out: % Inhibition at 10 μM Solution in Cancer Cell Line
# [13] = test system: Colorectal adenocarcinoma (SW620) cell line; assay: SRB assay for anticancer activity, SW620; format: cell-based, human; conditions: for inhibition at 10 µM: Homo sapiens, SW-620, Colon SW620, 48 h, read-out: % Inhibition at 10 μM Solution in Cancer Cell Line
# Method: as §1, §2, §3, §4, §5, §6
# [14] = test system: Colon COLO205 cancer cell line; assay: SRB assay for anticancer activity, COLO205; format: cell-based, human; conditions: for inhibition at 10 µM: Homo sapiens, COLO 205, 48 h, read-out: % Inhibition at 10 μM Solution in Cancer Cell Line
# [15] = test system: Breast MDA-MB-231 cancer cell line; assay: SRB assay for anticancer activity, MDA-MB-231; format: cell-based, human; conditions: 48 h; for inhibition at 10 µM: Homo sapiens, read-out: % Inhibition at 10 μM Solution in Cancer Cell Line
# [16] = test system: KB cells; conditions: Chinese Chemical Letters 2013, 24, 57-58, read-out: cytotoxicity against KB cells in vitro, IC50; cited from earlier work
Molecule,inhibition at 10 µM [1],inhibition at 10 µM [2],inhibition at 10 µM [3],inhibition at 10 µM [4],inhibition at 10 µM [5],inhibition at 10 µM [6],inhibition at 10 µM [7],inhibition at 10 µM [8],inhibition at 10 µM [9],inhibition at 10 µM [10],inhibition at 10 µM [11],inhibition at 10 µM [12],inhibition at 10 µM [13],inhibition at 10 µM [14],inhibition at 10 µM [15],also measured
"CCOC(=O)C1(C(=O)OCC)Cc2ccc3c(c2C1)C(=O)NC3=O [Compound 18, Diethyl 1,3-dioxo-2,3,6,8-tetrahydrocyclopenta[e]isoindole-7,7(1H)-dicarboxylate]",-1.46%,28.8%,0%,0%,0%,20.9%,0%,0%,6.84%,-0.05%,0%,0%,13.2%,0%,0%,
"CCOC(=O)C1(C(=O)OCC)Cc2cc(C)c3c(c2C1)C(=O)N(S(=O)(=O)c1ccc(F)cc1)C3=O [Compound 24, Diethyl 2-((4-fluorophenyl)sulfonyl)-4-methyl-1,3-dioxo-2,3,6,8-tetrahydrocyclopenta[e]isoindole-7,7(1H)-dicarboxylate]",21.2%,48.2%,0%,0%,0%,65.2%,0%,0%,34.9%,59.4%,0%,0%,50.5%,0%,0%,
"CCOC(=O)C1(C(=O)OCC)Cc2cc(C)c3c(c2C1)C(=O)N(CCO)C3=O [Compound 23, Diethyl 2-(2-hydroxyethyl)-4-methyl-1,3-dioxo-2,3,6,8-tetrahydrocyclopenta[e]isoindole-7,7(1H)-dicarboxylate]",-7.23%,19.2%,0%,0%,0%,31%,0%,0%,8.24%,11%,0%,0%,13.3%,0%,0%,
"CCOC(=O)C1(C(=O)OCC)Cc2ccc3c(c2C1)C(=O)N(CCO)C3=O [Compound 19, Diethyl 2-(2-hydroxyethyl)-1,3-dioxo-2,3,6,8-tetrahydrocyclopenta[e]isoindole-7,7(1H)-dicarboxylate]",-3.91%,29%,0%,0%,0%,25.7%,0%,0%,3.44%,0.16%,0%,0%,15.2%,0%,0%,
"COc1cccc2c1C(=O)c1c(O)c3c(c(O)c1C2=O)C[C@@](O)(C(=O)CO)C[C@@H]3O[C@H]1C[C@H](N)[C@H](O)[C@H](C)O1 [Doxorubicin, reference compound]",58%,69.1%,0%,0%,0%,89.5%,0%,0%,66.7%,89.6%,0%,0%,80.3%,0%,0%,
"8-Hydroxy-4,7,7-trimethyl-7,8-dihydrocyclopenta[e]isoindole-1,3(2H,6H)-dione [Compound 8]",,,,,,,,,,,,,,,,"% Inhibition at 10 μM Solution in Cancer Cell Line ([1]; Ovary SKOV3, 48 h): 5.55%; % Inhibition at 10 μM Solution in Cancer Cell Line [2]: 6.05%; % Inhibition at 10 μM Solution in Cancer Cell Line [3]: 0.00%; % Inhibition at 10 μM Solution in Cancer Cell Line [4]: 0.00%; % Inhibition at 10 μM Solution in Cancer Cell Line [5]: 0.00%; % Inhibition at 10 μM Solution in Cancer Cell Line [6]: 29.05%; % Inhibition at 10 μM Solution in Cancer Cell Line [7]: 0.00%; % Inhibition at 10 μM Solution in Cancer Cell Line [8]: 0.00%; % Inhibition at 10 μM Solution in Cancer Cell Line ([9]; 48 h): 4.31%; % Inhibition at 10 μM Solution in Cancer Cell Line [10]: 2.10%; % Inhibition at 10 μM Solution in Cancer Cell Line [11]: 0.00%; % Inhibition at 10 μM Solution in Cancer Cell Line [12]: 0.00%; % Inhibition at 10 μM Solution in Cancer Cell Line ([13]; Colon SW620, 48 h): −11.48%; % Inhibition at 10 μM Solution in Cancer Cell Line ([14]; 48 h): 0.00%; % Inhibition at 10 μM Solution in Cancer Cell Line [15]: 0.00%"
Cc1cc2c(c3c1C(=O)NC3=O)C(O)C(C)(C)C2 (stereo not shown) [Compound 1],,,,,,,,,,,,,,,,IC50 [16]: 16.6 µM
"CCOC(=O)C1(C(=O)OCC)Cc2cc(C)c3c(c2C1)C(=O)NC3=O [Compound 22, Diethyl 4-methyl-1,3-dioxo-2,3,6,8-tetrahydrocyclopenta[e]isoindole-7,7(1H)-dicarboxylate]",-9.36%,27%,0%,0%,0%,34.3%,0%,0%,10.4%,10.3%,0%,0%,15.4%,0%,0%,
